Key:
[1] = Chemical stability of fluorescent labelled compound in PBS buffer at pH 7.4 and 22 degree C measured after 48 hrs by RP-HPLC analysis; type: physicochemical; settings: pH 7.4, 48 h
[2] = Chemical stability of fluorescent labelled compound in PBS buffer assessed as compound decomposition at pH 7.4 and 22 degree C after > 24 hrs by RP-HPLC analysis; type: physicochemical; settings: pH 7.4, 24 h

SMILES	Stability [1]	Stability [2]
CC[C@H](C)[C@H](NC(=O)[C@H](Cc1ccc(O)cc1)NC(=O)[C@@H]1CCCN1C(=O)[C@H](CCCNC(=N)N)NC(=O)[C@@H](N)CCCNC(=N)NC(=O)NCCCCNC(=O)CCCCCN1/C(=C/C=C/C=C/C2=[N+](CCCCS(=O)(=O)[O-])c3ccccc3C2(C)C)C(C)(C)c2cc(S(=O)(=O)O)ccc21)C(=O)N[C@@H](CC(C)C)C(=O)O.O=C(O)C(F)(F)F.O=C(O)C(F)(F)F	Stable	
CC[C@H](C)[C@H](NC(=O)[C@H](Cc1ccc(O)cc1)NC(=O)[C@@H]1CCCN1C(=O)[C@H](CCCNC(=N)N)NC(=O)[C@@H](N)CCCNC(=N)NC(=O)NCCOCCOCCNC(=O)CCCCCN1/C(=C/C=C/C=C/C2=[N+](CCCCS(=O)(=O)[O-])c3ccccc3C2(C)C)C(C)(C)c2ccccc21)C(=O)N[C@@H](CC(C)C)C(=O)O.O=C(O)C(F)(F)F.O=C(O)C(F)(F)F.O=C(O)C(F)(F)F	Stable	
CC[C@H](C)[C@H](NC(=O)[C@H](Cc1ccc(O)cc1)NC(=O)[C@@H]1CCCN1C(=O)[C@H](CCCNC(=N)NC(=O)NCCOCCOCCNC(=O)CCCCCN1/C(=C/C=C/C=C/C2=[N+](CCCCS(=O)(=O)[O-])c3ccccc3C2(C)C)C(C)(C)c2cc(S(=O)(=O)O)ccc21)NC(=O)[C@@H](N)CCCNC(=N)N)C(=O)N[C@@H](CC(C)C)C(=O)O.O=C(O)C(F)(F)F.O=C(O)C(F)(F)F	Stable	
CC[C@H](C)[C@H](NC(=O)[C@H](Cc1ccc(O)cc1)NC(=O)[C@@H]1CCCN1C(=O)[C@H](CCCNC(=N)N)NC(=O)[C@@H](N)CCCNC(=N)NC(=O)NCCOCCOCC[n+]1c(C)cc(/C=C/C=C/c2ccc(N(C)C)cc2)cc1C)C(=O)N[C@@H](CC(C)C)C(=O)O.O=C(O)C(F)(F)F.O=C(O)C(F)(F)F.O=C(O)C(F)(F)F.O=C([O-])C(F)(F)F		Unstable
